Measured values as given in patent publication USRE39591E1, “6-O-substituted ketolides having antibacterial activity” (Abbott Laboratories, priority 1996, dated 2007).
Converted amounts (≈) assume the structure as drawn.

System: up to 32 different microorganisms
Assay: in vitro antibacterial activity (MIC), agar dilution on Brain Heart Infusion (BHI) agar with Steers replicator
Format: cell-based
Settings: unit assumed
Procedure: Representative compounds of the present invention were assayed in vitro for antibacterial activity as follows: Twelve petri dishes containing successive aqueous dilutions of the test compound mixed with 10 mL of sterilized Brain Heart Infusion (BHI) agar (Difco 0148-01-5) were prepared. Each plate was inoculated with 1:100 (or 1:10 for slow-growing strains, such as Micrococcus and Streptococcus) dilutions of up to 32 different microorganisms, using a Steers replicator block. The inoculated plates were incubated at 35°-37° C. for 20 to 24 hours. In addition, a control plate, using BHI agar containing no test compound, was prepared and incubated at the beginning and end of each test.
An additional plate containing a compound having known susceptibility patterns for the organisms being tested and belonging to the same antibiotic class as the test compound was also prepared and incubated as a further control, as well as to provide test-to-test comparability. Erythromycin A was used for this purpose.
After incubation, each plate was visually inspected. The minimum inhibitory concentration (MIC) was defined as the lowest concentration of drug yielding no growth, a slight haze, or sparsely isolated colonies on the inoculum spot as compared to the growth control.

[1] = Candida albicans CCH 442 (code TT)
[2] = Enterococcus faecism ATCC 8043 (code II)
[3] = Escherichia coli DC-2 (code SS)
[4] = Escherichia coli JUHL (code QQ)
[5] = Micrococcus luteus ATCC 4698 (code PP)
[6] = Micrococcus luteus ATCC 9341 (code OO)
[7] = Mycobacterium smegmatis ATCC 114 (code UU)
[8] = Nocardia Asteroides ATCC9970 (code VV)
[9] = Staphylococcus aureus 1775 (code GG)
[10] = Staphylococcus aureus A5177 (code BB)
[11] = Staphylococcus aureus A-5278 (code CC)
[12] = Staphylococcus aureus ATCC 6538P (code AA)
[13] = Staphylococcus aureus CMX 553 (code FF)
[14] = Staphylococcus aureus CMX 642A (code DD)
[15] = Staphylococcus aureus NCTC10649M (code EE)
[16] = Staphylococcus epidermidis 3519 (code HH)
[17] = Streptococcus agalactiae CMX 508 (code KK)
[18] = Streptococcus bovis A-5169 (code JJ)
[19] = Streptococcus pyogenes 930 (code MM)
[20] = Streptococcus pyogenes PIU 2548 (code NN)

CCC1OC(=O)C(C)C(=O)C(C)C(OC2OC(C)CC(N(C)C)C2O)C(C)(OCC(O)c2ccccc2)CC(C)C(=O)C(C)C2NC(=O)OC12C (single isomer, unassigned) [Example 261A]
MIC (organism code AA): 6.2 µg/mL (≈ 8.62 µM)
MIC (organism code BB): 6.2 µg/mL (≈ 8.62 µM)
MIC (organism code CC): > 100 µg/mL
MIC (organism code DD): 12.5 µg/mL (≈ 17.4 µM)
MIC (organism code EE): 12.5 µg/mL (≈ 17.4 µM)
MIC (organism code FF): 12.5 µg/mL (≈ 17.4 µM)
MIC (organism code GG): > 100 µg/mL
MIC (organism code HH): 6.2 µg/mL (≈ 8.62 µM)
MIC (organism code II): 1.56 µg/mL (≈ 2.17 µM)
MIC (organism code JJ): 0.39 µg/mL (≈ 0.543 µM)
MIC (organism code KK): 0.39 µg/mL (≈ 0.543 µM)
MIC (organism code LL): 0.39 µg/mL (≈ 0.543 µM)
MIC (organism code MM): > 100 µg/mL
MIC (organism code NN): 1.56 µg/mL (≈ 2.17 µM)
MIC (organism code OO): 0.78 µg/mL (≈ 1.09 µM)
MIC (organism code PP): 3.1 µg/mL (≈ 4.31 µM)
MIC (organism code QQ): > 100 µg/mL
MIC (organism code RR): 6.2 µg/mL (≈ 8.62 µM)
MIC (organism code SS): > 100 µg/mL
MIC (organism code TT): > 100 µg/mL
MIC (organism code UU): 25 µg/mL (≈ 34.8 µM)
MIC (organism code VV): 6.2 µg/mL (≈ 8.62 µM)
MIC (organism code WW): 64 µg/mL (≈ 89 µM)
MIC (organism code XX): 1 µg/mL (≈ 1.39 µM)
MIC (organism code YY): 1 µg/mL (≈ 1.39 µM)
MIC (organism code ZZ): > 128 µg/mL
MIC (organism code ZZA): 2 µg/mL (≈ 2.78 µM)

CCC1OC(=O)C(C)C(=O)C(C)C(OC2OC(C)CC(N(C)C)C2O)C(C)(OCC(O)c2ccccc2)CC(C)C(=O)C(C)C2NC(=O)OC12C (single isomer, unassigned) [Example 261B]
MIC (organism code AA): 3.1 µg/mL (≈ 4.31 µM)
MIC (organism code BB): 3.1 µg/mL (≈ 4.31 µM)
MIC (organism code CC): > 100 µg/mL
MIC (organism code DD): 6.2 µg/mL (≈ 8.62 µM)
MIC (organism code EE): 3.1 µg/mL (≈ 4.31 µM)
MIC (organism code FF): 3.1 µg/mL (≈ 4.31 µM)
MIC (organism code GG): > 100 µg/mL
MIC (organism code HH): 6.2 µg/mL (≈ 8.62 µM)
MIC (organism code II): 0.78 µg/mL (≈ 1.09 µM)
MIC (organism code JJ): 0.39 µg/mL (≈ 0.543 µM)
MIC (organism code KK): 0.39 µg/mL (≈ 0.543 µM)
MIC (organism code LL): 0.39 µg/mL (≈ 0.543 µM)
MIC (organism code MM): > 100 µg/mL
MIC (organism code NN): 0.78 µg/mL (≈ 1.09 µM)
MIC (organism code OO): 0.39 µg/mL (≈ 0.543 µM)
MIC (organism code PP): 1.56 µg/mL (≈ 2.17 µM)
MIC (organism code QQ): > 100 µg/mL
MIC (organism code RR): 6.2 µg/mL (≈ 8.62 µM)
MIC (organism code SS): > 100 µg/mL
MIC (organism code TT): > 100 µg/mL
MIC (organism code UU): 25 µg/mL (≈ 34.8 µM)
MIC (organism code VV): 6.2 µg/mL (≈ 8.62 µM)
MIC (organism code WW): 32 µg/mL (≈ 44.5 µM)
MIC (organism code XX): 0.5 µg/mL (≈ 0.696 µM)
MIC (organism code YY): 0.5 µg/mL (≈ 0.696 µM)
MIC (organism code ZZ): > 128 µg/mL
MIC (organism code ZZA): 1 µg/mL (≈ 1.39 µM)

C=CCOC1(C)CC(C)C(=O)C(C)C(O)C(C)(O)C(CC)OC(=O)C(C)C(=O)C(C)C1OC1OC(C)CC(N(C)C)C1O (stereo not drawn) [Example 1, Compound of Formula (VIII): X is O, R is allyl]
MIC [1]: > 100 µg/mL
MIC [2]: 12.5 µg/mL
MIC [3]: > 100 µg/mL
MIC [4]: > 100 µg/mL
MIC (Escherichia coli SS (code RR)): 12.5 µg/mL
MIC (Haemophilis influenzae DILL AMP R (code WW)): > 128 µg/mL
MIC [5]: 6.2 µg/mL
MIC [6]: 3.1 µg/mL
MIC [7]: > 100 µg/mL
MIC [8]: 6.3 µg/mL
MIC [9]: > 100 µg/mL
MIC [10]: 50 µg/mL
MIC [11]: > 100 µg/mL
MIC [12]: 12.5 µg/mL
MIC [13]: 25 µg/mL
MIC [14]: 50 µg/mL
MIC [15]: 6.2 µg/mL
MIC [16]: 50 µg/mL
MIC (Streptococcus Pneumonia 5649 (code ZZA)): 8 µg/mL
MIC (Streptococcus Pneumonia 5979 (code ZZ)): > 128 µg/mL
MIC (Streptococcus Pneumonia ATCC6303 (code XX)): 4 µg/mL
MIC (Streptococcus Pneumonia GYR 1171 (code YY)): 4 µg/mL
MIC [17]: 6.2 µg/mL
MIC [18]: 25 µg/mL
MIC [19]: > 100 µg/mL
MIC [20]: 12.5 µg/mL

C=CCOC1(C)CC(C)C(=NO)C(C)C(O)C(C)(O)C(CC)OC(=O)C(C)C(=O)C(C)C1OC1OC(C)CC(N(C)C)C1O (stereo not drawn) [Example 2, Compound of Formula (VIII): X is NOH, R is allyl]
MIC [1]: > 100 µg/mL
MIC [2]: 6.2 µg/mL
MIC [3]: > 100 µg/mL
MIC [4]: > 100 µg/mL
MIC (Escherichia coli SS (code RR)): 3.1 µg/mL
MIC [5]: 3.1 µg/mL
MIC [6]: 1.56 µg/mL
MIC [7]: 25 µg/mL
MIC [8]: 0.2 µg/mL
MIC [9]: > 100 µg/mL
MIC [10]: 3.1 µg/mL
MIC [11]: > 100 µg/mL
MIC [12]: 3.1 µg/mL
MIC [13]: 3.1 µg/mL
MIC [14]: 3.1 µg/mL
MIC [15]: 1.56 µg/mL
MIC [16]: 6.2 µg/mL
MIC [17]: 1.56 µg/mL
MIC [18]: 3.1 µg/mL
MIC [19]: > 100 µg/mL
MIC (Streptococcus pyogenes EES61 (code LL)): 3.1 µg/mL
MIC [20]: 3.1 µg/mL
